± gives the expanded uncertainty stated by the source.
Key:
[1] = 293.15 K; 101.33 kPa; Liquid; Vibrating tube method
[2] = refractive index (Na D-line) (dimensionless); conditions: 293.15 K; 101.33 kPa; Liquid; Standard Abbe refractometry

mass density [1] [kg/m3]	refractive index [2]	Compound
802 ± 1	1.3955 ± 0.0008	CC(C)CO [2-methyl-1-propanol]
998.4 ± 1	1.3328 ± 0.0007	O [water]
810.2 ± 1.1	1.413 ± 0.0008	CC(C)CCO [3-methylbutan-1-ol]
790 ± 1	1.3616 ± 0.0012	CCO [ethanol]
